{"source": "patent US7019000B1", "about": "“Method of treating a disease condition caused or exacerbated by an HPV” (Institute of Molecular & Cell Biology, priority 1998, dated 2006)", "key": {"[1]": {"test_system": "HT3, MCF7, HaCat and HeLa-fibroblast hybrid cell line 444", "assay": "Cell viability (WST1 assay), HPV-negative cells and 444 hybrid", "format": "cell-based, human", "settings": "treated 3 times in 3 days", "source_text": "(§1) All cell lines were obtained from the American Type Culture Collection (Manassas, Va.) unless otherwise noted. SiHa (human cervical epithelial tumor line, HPV16-positive), CaSki (human cervical epithelial tumor line, HPV16-positive), HaCat (immortalized human skin epithelial cell line, HPV-negative), HeLa (human cervical epithelial tumor line, HPV18-positive), 444 (hybrid of HeLa and fibroblast, HPV18-positive) obtained from Eric Stanbridge (Universitv of California, Irvine), MCF7 (human mammary epithelial tumor cell line, HPV-negative), HT3 (human cervical epithelial tumor cell line, HPV-negative) was obtained from the German Cancer Research Institute/DKFZ-Heidelberg, and HepG2, (human liver epithelial tumor cell line, HPV-negative), were grown in Dulbecco's modified Eagle medium (DMEM) supplemented with 10% fetal calf serum, 100 U penicillin and 1000 U streptomycin. Cells were allowed to attach to the surface of microwell dishes overnight and subsequently, incubated with medium containing the zinc ejecting compounds at the concentrations (10–100 μM). Viability of the cells was scored by measuring the absorption of the tetrazolium salt WST1 (Roche Molecular Biochemicals, Mannheim, Germany) in an Elisa-plate reader (Tecan, Salzburg, Austria) at a wavelength of 450 nm and a reference wavelength of 630 nm. […]"}, "[2]": {"test_system": "HPV containing cell lines as HeLa, SiHa and Caski, compared to HPV-negative cell lines MCF7, HEPG2, (HaCat, HT3, 444)", "assay": "Cell viability (WST1 assay), panel of HPV-positive and HPV-negative cell lines", "format": "cell-based, human", "description": "Zinc finger proteins are required for maintenance of cell viability. Preferably, the compounds for use in the present invention are specific in their ability to affect the viability of MPV containing cells, with little or no cytotoxic effects on the cellular functioning of healthy non-MPV containing cells. The viability of MPV-infected cells (and non infected cells) in the presence of compounds of Formulae (I) or (II) can be measured by incubating with the tetrazolium salt WST1 (Roche Molecular Biochemicals, Manneheim Germany) and measuring the absorption readings thereof (WST1 assay).\nAll cell lines were obtained from the American Type Culture Collection (Manassas, Va.) unless otherwise noted. SiHa (human cervical epithelial tumor line, HPV16-positive), CaSki (human cervical epithelial tumor line, HPV16-positive), HaCat (immortalized human skin epithelial cell line, HPV-negative), HeLa (human cervical epithelial tumor line, HPV18-positive), 444 (hybrid of HeLa and fibroblast, HPV18-positive) obtained from Eric Stanbridge (Universitv of California, Irvine), MCF7 (human mammary epithelial tumor cell line, HPV-negative), HT3 (human cervical epithelial tumor cell line, HPV-negative) was obtained from the German Cancer Research Institute/DKFZ-Heidelberg, and HepG2, (human liver epithelial tumor cell line, HPV-negative), were grown in Dulbecco's modified Eagle medium (DMEM) supplemented with 10% fetal calf serum, 100 U penicillin and 1000 U streptomycin. Cells were allowed to attach to the surface of microwell dishes overnight and subsequently, incubated with medium containing the zinc ejecting compounds at the concentrations (10–100 μM). Viability of the cells was scored by measuring the absorption of the tetrazolium salt WST1 (Roche Molecular Biochemicals, Mannheim, Germany) in an Elisa-plate reader (Tecan, Salzburg, Austria) at a wavelength of 450 nm and a reference wavelength of 630 nm.\nA total of 10 000 cells per well were plated on 24 well plates, after attachment overnight, they were treated 3 times in 3 days with C16 at 10 μM and 50 μM. The activity of C16 was also compared with that of C4 (azodicarbonamide) which causes ejection of zinc from HIV-1 NCp7 and is currently used in clinical trials for the treatment of AIDS."}, "[3]": {"target": "T1, E6 binding to E6BP and E6AP (Human papillomavirus type 16, UniProt P03126)", "T1 construct": "The open reading frame of HPV-16 E6, cloned into the Hind III and PstI site of the pSP64 plasmid; made in house; host or cells: TNT-SP6 coupled reticulocyte lysate (Promega) for E6; E. coli AB1899 for the GST fusions", "T1 sequence (P03126 whole entry, the tested form may be a part)": "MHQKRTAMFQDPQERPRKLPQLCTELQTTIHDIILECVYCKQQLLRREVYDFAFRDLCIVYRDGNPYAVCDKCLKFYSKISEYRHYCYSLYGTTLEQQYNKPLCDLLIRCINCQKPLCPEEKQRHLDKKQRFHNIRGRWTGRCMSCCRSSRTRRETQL", "assay": "GST-pulldown experiment, in vitro translated E6 binding to GST-E6BP/GST-E6AP", "set-up": "species or system HPV-16", "settings": "35S-Cys in vitro translated E6", "description": "The open reading frame of HPV-16 E6, cloned into the Hind III and PstI site of the pSP64 plasmid (33), was in vitro translated with ^35S-cysteine by using the TNT-SP6 Coupled Reticulocyte Lysate System as recommend by the manufacturer (Promega). All washing and binding reactions were performed with the E6BP-binding buffer described (5) but without DTT (100 mM NaCl, 100 mM Tris-HCl pH8.0, 1% NP40, 0.1% nonfat dry milk and 1 mM PMSF. 40 μl of in vitro translated E6 plus 360 μl of E6BP-binding buffer were incubated for 2 hrs at room temperature with test compounds at difference concentrations from 0–1 mM (dissolved in DMSO at 1%), 5 mM EDTA, and H2O2 at 0.3% (85 mM). The sample was then passed over columns captaining glutathione-sepharose beads with bound GST, GST-E6, GST-E6BP or GST-E6AP proteins. The beads were heated to 95° C. in 50 μl Laemmli sample buffer (BIO-RAD) with 2.5% 2-mercaptoethanol, subjected to electrophoresis on a 15% polyacrylamide gel, fixed, stained, and autoradiographed. Interference with complex formation identified reactive compounds. Desitometric quantification was performed with a BIO-RAD/GS700 imaging desitometer."}, "[4]": {"test_system": "PARP cleavage in HaCat cells", "assay": "Western blot detection of PARP cleavage, HaCat", "format": "cell-based, human", "settings": "100 μM, one day; HPV-negative HaCat cells (mutant p53)", "description": "10^6 cells were plated on 10 cm petri-dishes with 10 ml medium and after attachment overnight, treated with 100 μM C16 or 0.5% DMSO for one day. At the time of cell harvest most C16-treated cells were still attached to the plate. Cells were harvested using a rubber policeman and lysed in 10 mM Hepes buffer, pH 7.2, 150 mM NaCl, 0.2% Nonidet-P40 (NP40) and 1 mM PMSF, followed by centrifugation. 20 μg of protein was loaded onto a 12% SDS-polyacrylamide gel, transferred to a nitrocellulose membrane and the membrane blocked with 5% nonfat dry milk in 20 mM Tris-Cl, pH 7.6, 150 mM NaCl, 0.05% Tween-20 overnight at 4° C. The membrane was then probed with primary antibodies against p53 (Santa Cruz Biotechnology, Santa Cruz, Calif.), β-actin (Sigma, St. Louis, Mo.) or PARP (C210, Centre de Research du Chul, Quebec, Canada) and followed by incubation with horseradish peroxidase-conjugated secondary antibody (Pierce, Rockford, Ill.). Finally, the blot was treated with an enhanced chemiluminescent detection substrate (SuperSignal, Pierce) and autoradiographed.\nIncreases in P53 expression are known to be associated with programmed cell death (apoptosis) (29), therefore PARP cleavage, a hallmark of apoptosis was examined in C16 treated cells."}, "SiHa, Caski, HeLa": {"test_system": "SiHa, Caski, HeLa", "assay": "Cell viability (WST1 assay), cervical epithelial tumour cells", "format": "cell-based, human", "settings": "50 μM, treated 3 times in 3 days", "source_text": "as §1"}}}
{"smiles": "C1CN(SSN2CCOCC2)CCO1", "note": "[Compound C16]", "values": [{"measurement": "effect on cell viability", "setting": "[1]", "result": "little or no effect"}, {"measurement": "effective concentration in cell viability assays", "setting": "[2]", "result": 50, "unit": "µM"}, {"measurement": "WST1", "setting": "[2]; 50 μM in cell culture", "result": "+"}, {"measurement": "WST1-spec", "setting": "[2]; 50 μM, HPV containing vs HPV-negative cell lines", "result": "+"}, {"measurement": "inhibition of E6 binding to E6BP and E6AP (GST-pulldown, FIG. 2)", "setting": "[3]", "result": "inhibits E6 binding to both cellular proteins"}, {"measurement": "PARP cleavage", "setting": "[4]", "result": "not"}, {"measurement": "inhibition of cell viability", "setting": "SiHa, Caski, HeLa", "result": "substantial and specific inhibition of cell viability"}]}
